Results as given in patent US20200093123A1, “INSECTICIDAL EMULSION” (EVOLVA SA, priority 2016, published 2020).
Where two headings read alike, the source gives them in different places.

Key:
[1] = partially soluble in water; cited from earlier work
[2] = rats; cited from earlier work
Aedes aegypti larvae = assay: Duration of larvicidal protection in treated water (Example 7); format: in vivo; details: 0.03% nootkatone/1% ethanol in water; larvae added 3-7 days after the water was treated; within 24 hours
mosquito pupae [3] = assay: Mosquito pupae killing (Example 8, previous testing); format: in vivo, Aedes aegypti or Anopheles quadrimaculatus; details: 0.03% nootkatone/1% ethanol; within 24 hours
Description: Pupae preparation. Eggs of Aedes aegypti or Anopheles quadrimaculatus were purchased from a commercial supplier. Eggs were hatched in sterile MilliQ water and fed with finely ground Tetramin® fish food until they developed into pupae.
Pupae experiments. Clean, glass 600 mL beakers were washed and thoroughly rinsed prior to use as test containers. On testing days, pupae were removed from dishes used to grow larvae. Replicates of 10 pupae each were randomly assigned to glass beakers in a volume of 100 mL of sterile MilliQ water, and a treatment (see “Treatments” below) is added. A minimum of three control replicates and 4 treated replicates were tested on more than one day. The beakers were then covered lightly with Kimwipes®, secured by rubber bands to prevent escape of adults. The beakers were observed after 24 hours, and the numbers of live pupae, dead pupae, live adults, and dead adults were recorded.
Treatments. An aliquot of 0.5-1 mL of formulations such as those used in Example 1 was added to each test beaker. Control beakers consist of 100 mL of sterile MilliQ water.

mosquito pupae [4] = assay: Prevention of adult emergence from pupae (Example 9, previous testing); format: in vivo, Aedes aegypti or Anopheles quadrimaculatus; details: 0.015% nootkatone/0.5% ethanol (v/v) in water for 48 hours
Description: Pupae preparation. Eggs of Aedes aegypti or Anopheles quadrimaculatus were purchased from a commercial supplier. They were hatched in sterile MilliQ water and fed with finely ground TetraMin® fish food (fish meal, dried yeast, ground brown rice, shrimp meal, wheat gluten, feeding oat meal, fish oil, potato protein, dehulled soybean meal, soybean oil, algae meal, sorbitol, lecithin, monobasic calcium phosphate, ascorbic acid, yeast extract, inositol, niacin, L-ascorbyl-2-polyphosphate, riboflavin-5-phosphate, α-tocopherol-acetate, d-calcium pantothenate, thiamine mononitrate, pyridoxine hydrochloride, vitamin A palmitate, menadione sodium bisulfite complex, biotin, vitamin B12 supplement, cholcalciferol, manganese sulfate monohydrate, zinc sulfate monohydrate, ferrous sulfate monohydrate, cobalt acetate) until they developed into pupae.
Pupae experiments. Clean, glass 600 mL beakers were washed and thoroughly rinsed prior to use as test containers. On each of four testing days, pupae were removed from dishes used to grow larvae. Replicates of 10 pupae each were randomly assigned to glass beakers in a volume of 100 mL of sterile MilliQ water, and a treatment (see “Treatments” below) is added. The beakers are then covered lightly with Kimwipes® and secured by rubber bands to prevent escape of adults. […]
Treatments. […]

[5] = system: Aedes aegypti New Orleans strain adults; format: in vivo
Description: (§1) Method: Nootkatone was solubilized in acetone to a concentration of 1%, 0.607%, 0.368%, 0.224%, 0.136%, 0.082%, and 0.05%. 0.5 mL of solution was dispensed into a 5 cm diameter glass Petri dish for each replicate to be tested, using a fume hood and appropriate personal protective equipment. Liquid was dispensed to ensure that the entire base of the dish was covered with solution. Dishes were transferred to an orbital shaker set at a speed of 200 revolutions per minute. The dishes were shaken for 15 minutes to ensure even distribution on the surface of the plate. Control dishes were prepared in the same way using 0.5 mL of acetone without nootkatone. Dishes were allowed to dry for 4 hours before use. Dishes were stored at 4° C. until use. Groups of 10 adult female mosquitoes, 2-5 days old, were gently aspirated into a transfer pot system, and were then gently tapped out onto the surface of the treated or control Petri dishes. Although attempts are made to have groups of exactly 10 mosquitoes, group size could vary. Groups of more than 15 mosquitoes were excluded from testing, due to overcrowding. The opening to the dishes through which the mosquitoes were introduced was covered with parafilm to prevent escape. After 30 minutes of exposure to the Petri dishes, mosquitoes were transferred to paper cups for additional observation. They were supplied with 10% sucrose solution ad libitum. Three replicates, or 30 total adult female mosquitoes were tested for each concentration of nootkatone in acetone, and for the acetone-only controls. The mosquitoes tested were either the Aedes aegypti New Orleans strain, or Anopheles gambiae Kisumu strain.
(§2) Observation Methods: • a. […] Definitions of “Alive”, “Knockdown (KD)”, and “Dead” are as defined above.

[6] = system: Anopheles gambiae Kisumu strain adults; format: in vivo
Description: as §1, §2

[7] = system: yellow fever mosquitoes (Aedes aegypti) adults; assay: whole plant or invertebrate; format: in vivo; details: 1% w/v nootkatone in ethanol dried on filter paper, mortality reached at 24 hours
Description: (§3) Method: Nootkatone was solubilized in ethanol to a concentration of 1% w/v. The nootkatone solution, or solvent (ethanol) alone as a negative control, was applied directly to filter paper using a micropipette, in an amount of 1 mL for a 9 cm filter paper disc. Filter papers were allowed to dry completely before being cut to the appropriate size prior to the start of the test. Treated and untreated filter papers were cut so that they covered the bottom of a suitable container for each test species (see Table No. 4, below). At each observation period, arthropods were classified as alive, knocked down (KD) or dead.
as §2

biting midges = assay: Nootkatone residue on filter paper (Example 13); format: in vivo, biting midge; details: 1% w/v nootkatone in ethanol dried on filter paper; mortality reached at 24 hours
Description: as §3, §2

fire ants = assay: Nootkatone residue on filter paper (Example 13); format: in vivo, fire ant
Description: as §3, §2

[8] = system: Asian tiger mosquitoes (Aedes albopictus); assay: Nootkatone residue on filter paper (Example 13); format: in vivo; details: 24 h
Description: as §3, §2

[9] = system: common malaria mosquitoes (Anopheles quadrimaculatus); assay: Nootkatone residue on filter paper (Example 13); format: in vivo; details: 24 h
Description: as §3, §2

[10] = system: southern house mosquitoes (Culex quinquefasciatus); assay: Nootkatone residue on filter paper (Example 13); format: in vivo; details: 24 h
Description: as §3, §2

deer ticks = assay: Nootkatone residue on filter paper (Example 13); format: in vivo, deer tick; details: 1% w/v nootkatone in ethanol dried on filter paper; at 72 hours
Description: as §3, §2

aphids = assay: Nootkatone residue on filter paper (Example 13); format: in vivo, aphid; details: 1% w/v nootkatone in ethanol dried on filter paper; mortality reached at 24 hours
Description: as §3, §2

termites = assay: Nootkatone residue on filter paper (Example 13); format: in vivo, termite; details: 1% w/v nootkatone in ethanol dried on filter paper; at 72 hours
Description: as §3, §2

[11] = system: Aedes aegypti adult female mosquitoes; assay: Arm over cage contact repellency, geraniol/co-solvent formulations (Example 18); format: in vivo; details: about 0.3 mL on collagen membrane aged one hour; 5 minute count; average of 4 replicates
Description: Twenty five Aedes aegypti adult female mosquitoes were introduced into a 1 ft×1 ft×1 ft cage. The mosquitoes were starved for at least 2 hours before repellency testing. The test formulation or control substance (see “Treatments”) was applied at a rate of approximately 0.3 mL onto a dampened collagen membrane (2.5 inches by 6 inches) to mimic the effect of skin, and the membrane was allowed to age for one hour while resting on a damp cloth. An untreated, dampened collagen membrane was placed on a mesh opening at the top of the test cage, and a researcher's arm was suspended -1/4 inch above the membrane to act as an attractant. The numbers of landings and probings of the untreated membrane were counted during a 5 minute period, and these counts were used as the baseline level of activity for that specific replicate of mosquitoes. Immediately after the baseline count, an aged, treated membrane was placed on top of the cage, and the numbers of landings and probings of the treated membrane were counted during a 5 minute period for the same replicate of mosquitoes. […] Repellency was calculated as one minus the ratio of the average number of probings or landings using the treated membrane divided by the average number of probings or landings using the untreated membrane from the same cages over the same four replicates of mosquitoes. […]

## OCc1ccccc1 [benzyl alcohol]
[1]
  solubility in water: 4 g/100 ml
[2]
  LD50: 1200 mg/kg

## C=C(C)[C@@H]1CCC2=CC(=O)C[C@@H](C)[C@]2(C)C1 [nootkatone]
Aedes aegypti larvae
  larvae killed: 100%
Mosquito pupae [3]
  pupae died, average: 94%
  pupae died, one experiment: 93%
  pupae died, second day of testing: 95%
Mosquito pupae [4]
  surviving adults eclosed from pupae: no surviving adults
[5]; residue of 0.5 mL 0.136% nootkatone in acetone on 5 cm glass dish, within 30 minutes
  adults knocked down: 47%
[5]; residue of 1% nootkatone in acetone, 30 minutes exposure, 24 hours after treatment
  mortality: 89%
[5]; residue on glass dish, 30 minutes exposure, 24 hours after treatment
  nootkatone concentration required to obtain significant mortality: 0.224%
[6]; residue of 0.082% nootkatone, 24 hours after treatment
  adults killed: 50%
[6]; residue of 0.5 mL 0.082% nootkatone in acetone on 5 cm glass dish, within 30 minutes
  adults knocked down: 41%
[6]; residue of 0.607% nootkatone, 24 hours after treatment
  mortality: 100%
[6]; residue of 1% nootkatone, 24 hours after treatment
  mortality: 100%
[7]
  mortality at 1 % strength: 100%
Biting midges
  Mortality %: 100%
Fire ants; 1% nootkatone dried on filter paper, within 24 hours
  killed: 100%
Fire ants; 1% w/v nootkatone in ethanol dried on filter paper, at 72 hours (table, no asterisk)
  Mortality %: 100%
[8]
  mortality at 1 % strength: 98%
[9]
  mortality at 1 % strength: 98%
[10]
  mortality at 1 % strength: 98%
Deer ticks
  Mortality %: 98%
aphids
  Mortality %: 94%
termites
  Mortality %: 90%

## CCN(CC)C(=O)c1cccc(C)c1 [20% DEET in ethanol, N,N-Diethyl-meta-toluamide]
[11]
  repellency against landings: 98%
  repellency against probings (bites): 100%
